Measurements reported in ChEMBL document CHEMBL1932988, “Synthesis, antimicrobial, anticancer evaluation and QSAR studies of 6-methyl-4-[1-(2-substituted-phenylamino-acetyl)-1H-indol-3-yl]-2-oxo/thioxo-1,2,3,4-tetrahydropyrimidine-5-carboxylic acid ethyl esters” (Eur J Med Chem, 2012).
In brackets after ≈: the same amount, converted by molar mass. Values belong to the compound of their own block, whether it stands above or below them.

What was measured:
[1] = tested on: Staphylococcus aureus; experiment: Antibacterial activity against Staphylococcus aureus MTCC 2901 after 24 hrs by tube dilution method; type: functional
[2] = tested on: Bacillus subtilis; experiment: Antibacterial activity against Bacillus subtilis MTCC 2063 after 24 hrs by tube dilution method; type: functional
[3] = tested on: Escherichia coli; experiment: Antibacterial activity against Escherichia coli MTCC 1652 after 24 hrs by tube dilution method; type: functional
[4] = tested on: Candida albicans; experiment: Antifungal activity against Candida albicans MTCC 227 after 48 hrs by tube dilution method; type: functional
[5] = tested on: Aspergillus niger; experiment: Antifungal activity against Aspergillus niger MTCC 8189 after 7 days by tube dilution method; type: functional
[6] = tested on: Staphylococcus aureus; experiment: Antibacterial activity against Staphylococcus aureus MTCC 2901 after 24 hrs followed by subculturing; type: functional
[7] = tested on: Bacillus subtilis; experiment: Antibacterial activity against Bacillus subtilis MTCC 2063 after 24 hrs by tube dilution method hrs followed by subculturing; type: functional
[8] = tested on: Escherichia coli; experiment: Antibacterial activity against Escherichia coli MTCC 1652 after 24 hrs by tube dilution method hrs followed by subculturing; type: functional
[9] = tested on: Candida albicans; experiment: Antifungal activity against Candida albicans MTCC 227 after 48 hrs by tube dilution method hrs followed by subculturing; type: functional
[10] = tested on: Aspergillus niger; experiment: Antifungal activity against Aspergillus niger MTCC 8189 after 7 days by tube dilution method hrs followed by subculturing; type: functional
[11] = tested on: Staphylococcus aureus; experiment: Ratio of MIC to MBC for Staphylococcus aureus MTCC 2901; type: functional
[12] = tested on: Bacillus subtilis; experiment: Ratio of MIC to MBC for Bacillus subtilis MTCC 2063; type: functional
[13] = tested on: Escherichia coli; experiment: Ratio of MIC to MBC for Escherichia coli MTCC 1652; type: functional
[14] = tested on: Candida albicans; experiment: Ratio of MIC to MFC for Candida albicans MTCC 227; type: functional
[15] = tested on: Aspergillus niger; experiment: Ratio of MIC to MFC for Aspergillus niger MTCC 8189; type: functional
[16] = Partition coefficient, log P of the compound; type: physicochemical; conditions: octanol/water
[17] = tested on: MCF7; experiment: cells; conditions: Homo sapiens, MCF7, 72 h
Description: Cytotoxicity against human MCF7 cells after 72 hrs by MTT assay

[18] = tested on: HCT-116; experiment: cells; conditions: Homo sapiens, HCT-116, 72 h

logP [16]: 2.88 | IC50 [17]: 550 µg/mL (≈ 1110 µM) | IC50 [18]: > 1000 µg/mL
Compound: CCOC(=O)C1=C(C)NC(=S)NC1c1cn(C(=O)CNc2ccccc2[N+](=O)[O-])c2ccccc12 (stereo unspecified)
-logMIC [1]: 1.3 | -logMIC [2]: 1.6 | -logMIC [3]: 1.6 | -logMIC [4]: 1.6 | -logMIC [5]: 1.6 | MBC [6]: >0.1 uM/ml | MBC [7]: >0.1 uM/ml | MBC [8]: >0.1 uM/ml | MFC [9]: >0.1 uM/ml | MFC [10]: >0.1 uM/ml | Ratio [11]: 3 | Ratio [12]: 3 | Ratio [13]: 3 | Ratio [14]: 3 | Ratio [15]: 3

logP [16]: 1.99 | IC50 [17]: 50 µg/mL (≈ 97.7 µM) | IC50 [18]: 5 µg/mL (≈ 9.77 µM)
Compound: CCOC(=O)C1=C(C)NC(=O)NC1c1cn(C(=O)CNc2ccc([N+](=O)[O-])cc2Cl)c2ccccc12 (stereo unspecified)
-logMIC [1]: 1.61 | -logMIC [2]: 1.61 | -logMIC [3]: 1.61 | -logMIC [4]: 1.61 | -logMIC [5]: 1.61 | MBC [6]: >0.1 uM/ml | MBC [7]: >0.1 uM/ml | MBC [8]: >0.1 uM/ml | MFC [9]: >0.1 uM/ml | MFC [10]: >0.1 uM/ml | Ratio [11]: 3 | Ratio [12]: 3 | Ratio [13]: 3 | Ratio [14]: 3 | Ratio [15]: 3
